Experimental data published in patent US20260035359A1, “HERBICIDAL IMIDAZOLE COMPOUNDS” (SYNGENTA CROP PROTECTION AG, priority 2022, published 2026).

Columns and labels:
Assay type in all cases: in vivo
[1] = test system: Ipomoea hederacea (IPOHE); assay: Pre-emergence herbicidal glasshouse test; conditions: 250 g/ha, sprayed after one day cultivation, evaluated after 13 days
Method: (§1) Seeds of a variety of test species are sown in standard soil in pots Amaranthus pa/meri (AMAPA), Amaranthus retoflexus (AMARE), Echinochloa crus-gali (ECHCG), Ipomoea hederacea (IPOHE), Setaria faberi (SETFA). After cultivation for one day (pre-emergence) or after 8 days cultivation (post-emergence) under controlled conditions in a glasshouse (at 24/16° C., day/night; 14 hours light; 65% humidity), the plants are sprayed with an aqueous spray solution derived from the formulation of the technical active ingredient in acetone/water (50:50) solution containing 0.5% Tween 20 (polyoxyethelyene sorbitan monolaurate, CAS RN 9005-64-5). Compounds are applied at 250 g/ha unless otherwise stated. The test plants are then grown in a glasshouse under controlled conditions in a glasshouse (at 24/16° C., day/night; 14 hours light; 65% humidity) and watered twice daily. After 13 days for pre and post-emergence, the test is evaluated for the percentage damage caused to the plant. The biological activities are shown in the following table on a five-point scale (5=81-100%; 4=61-80%; 3=41-60%; 2=21-40%; 1=0-20%).

Setaria faberi (SETFA) [2] = assay: Pre-emergence herbicidal glasshouse test; conditions: 250 g/ha, sprayed after one day cultivation, evaluated after 13 days
Method: as §1

[3] = test system: Amaranthus pa/meri (AMAPA); assay: Pre-emergence herbicidal glasshouse test; conditions: 250 g/ha, sprayed after one day cultivation, evaluated after 13 days
Method: as §1

[4] = test system: Echinochloa crus-gali (ECHCG); assay: Pre-emergence herbicidal glasshouse test; conditions: 250 g/ha, sprayed after one day cultivation, evaluated after 13 days
Method: as §1

[5] = test system: Amaranthus retoflexus (AMARE); assay: Pre-emergence herbicidal glasshouse test; conditions: 250 g/ha, sprayed after one day cultivation, evaluated after 13 days
Method: as §1

[6] = test system: Ipomoea hederacea (IPOHE); assay: Post-emergence herbicidal glasshouse test; conditions: 250 g/ha, sprayed after 8 days cultivation, evaluated after 13 days
Method: as §1

Setaria faberi (SETFA) [7] = assay: Post-emergence herbicidal glasshouse test; conditions: 250 g/ha, sprayed after 8 days cultivation, evaluated after 13 days
Method: as §1

[8] = test system: Amaranthus pa/meri (AMAPA); assay: Post-emergence herbicidal glasshouse test; conditions: 250 g/ha, sprayed after 8 days cultivation, evaluated after 13 days
Method: as §1

[9] = test system: Echinochloa crus-gali (ECHCG); assay: Post-emergence herbicidal glasshouse test; conditions: 250 g/ha, sprayed after 8 days cultivation, evaluated after 13 days
Method: as §1

[10] = test system: Amaranthus retoflexus (AMARE); assay: Post-emergence herbicidal glasshouse test; conditions: 250 g/ha, sprayed after 8 days cultivation, evaluated after 13 days
Method: as §1

## FC(F)(F)CCc1nc(C(F)(F)F)cn1Cc1ncc(Cl)cn1 [Compound 1.002, 5-chloro-2-[[4-(trifluoromethyl)-2-(3,3,3-trifluoropropyl)imidazol-1-yl]methyl]pyrimidine]
[1]
  percentage damage caused to the plant, IPOHE: 5 (5=81-100%)
Setaria faberi (SETFA) [2]
  percentage damage caused to the plant, SETFA: 5 (5=81-100%)
[3]
  percentage damage caused to the plant, AMAPA: 5 (5=81-100%)
[4]
  percentage damage caused to the plant, ECHCG: 5 (5=81-100%)
[5]
  percentage damage caused to the plant, AMARE: 5 (5=81-100%)
[6]
  percentage damage caused to the plant, IPOHE: 5 (5=81-100%)
Setaria faberi (SETFA) [7]
  percentage damage caused to the plant, SETFA: 5 (5=81-100%)
[8]
  percentage damage caused to the plant, AMAPA: 5 (5=81-100%)
[9]
  percentage damage caused to the plant, ECHCG: 5 (5=81-100%)
[10]
  percentage damage caused to the plant, AMARE: 5 (5=81-100%)

## FC(F)(F)CCCc1nc(Br)cn1Cc1ncc(Cl)cn1 [Compound 1.003, 2-[[4-bromo-2-(4,4,4-trifluorobutyl)imidazol-1-yl]methyl]-5-chloro-pyrimidine]
[1]
  percentage damage caused to the plant, IPOHE: 2 (2=21-40%)
Setaria faberi (SETFA) [2]
  percentage damage caused to the plant, SETFA: 1 (1=0-20%)
[3]
  percentage damage caused to the plant, AMAPA: 1 (1=0-20%)
[4]
  percentage damage caused to the plant, ECHCG: 1 (1=0-20%)
[5]
  percentage damage caused to the plant, AMARE: 1 (1=0-20%)
[6]
  percentage damage caused to the plant, IPOHE: 2 (2=21-40%)
Setaria faberi (SETFA) [7]
  percentage damage caused to the plant, SETFA: 1 (1=0-20%)
[8]
  percentage damage caused to the plant, AMAPA: 2 (2=21-40%)
[9]
  percentage damage caused to the plant, ECHCG: 1 (1=0-20%)
[10]
  percentage damage caused to the plant, AMARE: 2 (2=21-40%)

## FC(F)(F)CCCc1nc(Cl)c(Cl)n1Cc1ncc(Cl)cn1 [Compound 1.004, 5-chloro-2-[[4,5-dichloro-2-(4,4,4-trifluorobutyl)imidazol-1-yl]methyl]pyrimidine]
[1]
  percentage damage caused to the plant, IPOHE: 2 (2=21-40%)
Setaria faberi (SETFA) [2]
  percentage damage caused to the plant, SETFA: 4 (4=61-80%)
[3]
  percentage damage caused to the plant, AMAPA: 5 (5=81-100%)
[4]
  percentage damage caused to the plant, ECHCG: 3 (3=41-60%)
[5]
  percentage damage caused to the plant, AMARE: 5 (5=81-100%)
[6]
  percentage damage caused to the plant, IPOHE: 3 (3=41-60%)
Setaria faberi (SETFA) [7]
  percentage damage caused to the plant, SETFA: 4 (4=61-80%)
[8]
  percentage damage caused to the plant, AMAPA: 4 (4=61-80%)
[9]
  percentage damage caused to the plant, ECHCG: 3 (3=41-60%)
[10]
  percentage damage caused to the plant, AMARE: 4 (4=61-80%)

## OCCCc1nc(C(F)(F)F)cn1Cc1ncc(Cl)cn1 [Compound 1.008, 3-[1-[(5-chloropyrimidin-2-yl)methyl]-4-(trifluoromethyl)imidazol-2-yl]propan-1-ol]
[1]
  percentage damage caused to the plant, IPOHE: 1 (1=0-20%)
Setaria faberi (SETFA) [2]
  percentage damage caused to the plant, SETFA: 1 (1=0-20%)
[3]
  percentage damage caused to the plant, AMAPA: 1 (1=0-20%)
[4]
  percentage damage caused to the plant, ECHCG: 2 (2=21-40%)
[5]
  percentage damage caused to the plant, AMARE: 1 (1=0-20%)
[6]
  percentage damage caused to the plant, IPOHE: 1 (1=0-20%)
Setaria faberi (SETFA) [7]
  percentage damage caused to the plant, SETFA: 1 (1=0-20%)
[8]
  percentage damage caused to the plant, AMAPA: 1 (1=0-20%)
[9]
  percentage damage caused to the plant, ECHCG: 1 (1=0-20%)
[10]
  percentage damage caused to the plant, AMARE: 1 (1=0-20%)

## OCC(O)CCc1nc(C(F)(F)F)cn1Cc1ncc(Cl)cn1 (centres unmarked) [Compound 1.011, 4-[1-[(5-chloropyrimidin-2-yl)methyl]-4-(trifluoromethyl)imidazol-2-yl]butane-1,2-diol]
[1]
  percentage damage caused to the plant, IPOHE: 1 (1=0-20%)
Setaria faberi (SETFA) [2]
  percentage damage caused to the plant, SETFA: 1 (1=0-20%)
[3]
  percentage damage caused to the plant, AMAPA: 1 (1=0-20%)
[4]
  percentage damage caused to the plant, ECHCG: 1 (1=0-20%)
[5]
  percentage damage caused to the plant, AMARE: 1 (1=0-20%)
[6]
  percentage damage caused to the plant, IPOHE: 3 (3=41-60%)
Setaria faberi (SETFA) [7]
  percentage damage caused to the plant, SETFA: 1 (1=0-20%)
[8]
  percentage damage caused to the plant, AMAPA: 2 (2=21-40%)
[9]
  percentage damage caused to the plant, ECHCG: 1 (1=0-20%)
[10]
  percentage damage caused to the plant, AMARE: 2 (2=21-40%)

## C=CCCc1nc(C(F)(F)F)cn1Cc1ncc(Cl)cn1 [Compound 1.020, 2-[[2-but-3-enyl-4-(trifluoromethyl)imidazol-1-yl]methyl]-5-chloro-pyrimidine]
[1]
  percentage damage caused to the plant, IPOHE: 4 (4=61-80%)
Setaria faberi (SETFA) [2]
  percentage damage caused to the plant, SETFA: 4 (4=61-80%)
[3]
  percentage damage caused to the plant, AMAPA: 5 (5=81-100%)
[4]
  percentage damage caused to the plant, ECHCG: 5 (5=81-100%)
[5]
  percentage damage caused to the plant, AMARE: 5 (5=81-100%)
[6]
  percentage damage caused to the plant, IPOHE: 2 (2=21-40%)
Setaria faberi (SETFA) [7]
  percentage damage caused to the plant, SETFA: 1 (1=0-20%)
[8]
  percentage damage caused to the plant, AMAPA: 2 (2=21-40%)
[9]
  percentage damage caused to the plant, ECHCG: 2 (2=21-40%)
[10]
  percentage damage caused to the plant, AMARE: 3 (3=41-60%)

## CC(C)Cc1nc(C(F)(F)F)cn1Cc1ncc(Cl)cn1 [Compound 1.021]
[1]
  percentage damage caused to the plant, IPOHE: 4 (4=61-80%)
Setaria faberi (SETFA) [2]
  percentage damage caused to the plant, SETFA: 1 (1=0-20%)
[3]
  percentage damage caused to the plant, AMAPA: 5 (5=81-100%)
[4]
  percentage damage caused to the plant, ECHCG: 1 (1=0-20%)
[5]
  percentage damage caused to the plant, AMARE: 3 (3=41-60%)
[6]
  percentage damage caused to the plant, IPOHE: 3 (3=41-60%)
Setaria faberi (SETFA) [7]
  percentage damage caused to the plant, SETFA: 1 (1=0-20%)
[8]
  percentage damage caused to the plant, AMAPA: 3 (3=41-60%)
[9]
  percentage damage caused to the plant, ECHCG: 1 (1=0-20%)
[10]
  percentage damage caused to the plant, AMARE: 3 (3=41-60%)

## FC(F)COCc1nc(C(F)(F)F)cn1Cc1ncc(Cl)cn1 [Compound 1.022]
[1]
  percentage damage caused to the plant, IPOHE: 4 (4=61-80%)
Setaria faberi (SETFA) [2]
  percentage damage caused to the plant, SETFA: 1 (1=0-20%)
[3]
  percentage damage caused to the plant, AMAPA: 2 (2=21-40%)
[4]
  percentage damage caused to the plant, ECHCG: 1 (1=0-20%)
[5]
  percentage damage caused to the plant, AMARE: 3 (3=41-60%)
[6]
  percentage damage caused to the plant, IPOHE: 3 (3=41-60%)
Setaria faberi (SETFA) [7]
  percentage damage caused to the plant, SETFA: 1 (1=0-20%)
[8]
  percentage damage caused to the plant, AMAPA: 3 (3=41-60%)
[9]
  percentage damage caused to the plant, ECHCG: 1 (1=0-20%)
[10]
  percentage damage caused to the plant, AMARE: 3 (3=41-60%)

## COCc1nc(C(F)(F)F)cn1Cc1ncc(Cl)cn1 [Compound 1.023]
[1]
  percentage damage caused to the plant, IPOHE: 1 (1=0-20%)
Setaria faberi (SETFA) [2]
  percentage damage caused to the plant, SETFA: 1 (1=0-20%)
[3]
  percentage damage caused to the plant, AMAPA: 2 (2=21-40%)
[4]
  percentage damage caused to the plant, ECHCG: 1 (1=0-20%)
[5]
  percentage damage caused to the plant, AMARE: 2 (2=21-40%)
[6]
  percentage damage caused to the plant, IPOHE: 2 (2=21-40%)
Setaria faberi (SETFA) [7]
  percentage damage caused to the plant, SETFA: 1 (1=0-20%)
[8]
  percentage damage caused to the plant, AMAPA: 1 (1=0-20%)
[9]
  percentage damage caused to the plant, ECHCG: 1 (1=0-20%)
[10]
  percentage damage caused to the plant, AMARE: 1 (1=0-20%)

## FC(F)(F)CCCc1nc(C(F)(F)F)cn1Cc1ncc(Cl)cn1 [Compound 1.025]
[1]
  percentage damage caused to the plant, IPOHE: 5 (5=81-100%)
Setaria faberi (SETFA) [2]
  percentage damage caused to the plant, SETFA: 5 (5=81-100%)
[3]
  percentage damage caused to the plant, AMAPA: 5 (5=81-100%)
[4]
  percentage damage caused to the plant, ECHCG: 5 (5=81-100%)
[5]
  percentage damage caused to the plant, AMARE: 5 (5=81-100%)
[6]
  percentage damage caused to the plant, IPOHE: 4 (4=61-80%)
Setaria faberi (SETFA) [7]
  percentage damage caused to the plant, SETFA: 5 (5=81-100%)
[8]
  percentage damage caused to the plant, AMAPA: 5 (5=81-100%)
[9]
  percentage damage caused to the plant, ECHCG: 5 (5=81-100%)
[10]
  percentage damage caused to the plant, AMARE: 5 (5=81-100%)

## CCCCc1nc(C(F)(F)F)cn1Cc1ncc(Cl)cn1 [Compound 1.026]
[1]
  percentage damage caused to the plant, IPOHE: 3 (3=41-60%)
Setaria faberi (SETFA) [2]
  percentage damage caused to the plant, SETFA: 5 (5=81-100%)
[3]
  percentage damage caused to the plant, AMAPA: 5 (5=81-100%)
[4]
  percentage damage caused to the plant, ECHCG: 3 (3=41-60%)
[5]
  percentage damage caused to the plant, AMARE: 5 (5=81-100%)
[6]
  percentage damage caused to the plant, IPOHE: 4 (4=61-80%)
Setaria faberi (SETFA) [7]
  percentage damage caused to the plant, SETFA: 2 (2=21-40%)
[8]
  percentage damage caused to the plant, AMAPA: 5 (5=81-100%)
[9]
  percentage damage caused to the plant, ECHCG: 2 (2=21-40%)
[10]
  percentage damage caused to the plant, AMARE: 5 (5=81-100%)
